This is an account of results in US20260008768A1, “UREA DERIVATIVES FOR INHIBITING NLRP3 AND USES THEREOF” (VENTUS THERAPEUTICS U.S., INC., priority 2023, published 2026).

Bounds are passed on as bounds.

Chain of human NLRP3 (Q96P20 whole entry): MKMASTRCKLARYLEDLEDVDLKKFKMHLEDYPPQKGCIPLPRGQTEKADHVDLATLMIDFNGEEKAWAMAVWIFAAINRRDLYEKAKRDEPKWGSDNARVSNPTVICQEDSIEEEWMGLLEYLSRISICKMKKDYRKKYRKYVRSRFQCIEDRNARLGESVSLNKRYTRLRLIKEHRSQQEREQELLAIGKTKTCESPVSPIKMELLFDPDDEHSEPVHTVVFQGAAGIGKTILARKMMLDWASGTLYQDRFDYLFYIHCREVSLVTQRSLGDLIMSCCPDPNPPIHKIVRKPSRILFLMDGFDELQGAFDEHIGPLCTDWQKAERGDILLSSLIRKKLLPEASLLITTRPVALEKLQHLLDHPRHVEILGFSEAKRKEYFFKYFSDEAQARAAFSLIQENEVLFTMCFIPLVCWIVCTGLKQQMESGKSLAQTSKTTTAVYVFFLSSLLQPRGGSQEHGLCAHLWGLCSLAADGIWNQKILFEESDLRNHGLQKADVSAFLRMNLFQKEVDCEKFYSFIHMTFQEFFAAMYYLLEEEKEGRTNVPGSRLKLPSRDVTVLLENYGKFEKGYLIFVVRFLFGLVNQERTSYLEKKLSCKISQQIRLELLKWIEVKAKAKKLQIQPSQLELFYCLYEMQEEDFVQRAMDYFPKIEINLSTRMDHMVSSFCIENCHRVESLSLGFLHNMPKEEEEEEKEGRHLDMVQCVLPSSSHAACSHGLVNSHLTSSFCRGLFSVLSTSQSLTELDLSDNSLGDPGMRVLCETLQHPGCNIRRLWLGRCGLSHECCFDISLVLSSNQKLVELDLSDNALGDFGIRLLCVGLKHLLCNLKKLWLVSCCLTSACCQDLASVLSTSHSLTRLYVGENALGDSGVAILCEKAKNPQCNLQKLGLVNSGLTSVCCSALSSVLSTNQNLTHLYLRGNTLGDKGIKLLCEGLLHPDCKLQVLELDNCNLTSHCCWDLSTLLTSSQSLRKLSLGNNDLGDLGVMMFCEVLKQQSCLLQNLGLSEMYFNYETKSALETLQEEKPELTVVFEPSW

The experiment concerns the target human NLRP3 (Homo sapiens, UniProt Q96P20). In words: Scintillation Proximity (SPA) NLRP3 Assay, displacement of 3H-MCC950. Type of experiment: binding. Conditions: Table B, activity class; displacement of 3H-MCC950 from human NLRP3. Here is the method: Improved NLRP3 binding correlates with increased affinity for NLRP3 protein and, by extension, increased ability to interfere with its function.
SPA experiments were conducted in a total volume of 20 μL assay buffer containing 20 mM HEPES pH 7.5, 150 mM NaCl, 5 mM MgCl2, 0.01% (v/v) Tween-20, 0.01% (w/v) bovine serum albumin (BSA) and 100 μM of adenosine diphosphate (ADP). A human NLRP3 protein (350 nM) (see, e.g., Sharif et al., Nature (2019) 570:338-343; Hochheiser et al., Nature (2022) 604:184-189; Adreeva et al., Cell (2021) 184:6299-6312; Wang et al., J Exp. Med. (2021) 219:e20211147) was incubated with various concentration of compounds in 5% dimethyl sulfoxide (DMSO) final for 15 minutes at room temperature in a white half-area 96 well OptiPlate (PerkinElmer #6002290) before adding 125 nM final of 3H-MCC950. After the addition of radiolabeled MCC950, the plate was incubated for 60 minutes at room temperature before adding 0.25 mg/ml of copper-coated polyvinyltoluene SPA beads (PerkinElmer #RPNQ0095). The plate was then transferred to a microplate counter (PerkinElmer 2450 Microbeta) to collect binding data. Binding data was analyzed 6 hrs post-PVT bead addition to allow sufficient time to reach equilibrium. Specific binding was calculated from averaged duplicates by subtracting signal from wells without NLRP3 protein.
SPA NLRP3 IC50 assay results are provided in Table B. “A” activity=<1 uM; “B” activity=1-10 uM; “C” activity=>10-50 uM; “D” activity=>50 uM-100 uM; and “E” activity=>100 uM.
The compound `C[C@H]1CCN(c2nnn[nH]2)C[C@@H](NC(=O)N(C)c2ccc(Cl)cn2)C1` (single isomer, unassigned) [28D*] gave an IC50 of 10 to 50 µM.
For `C[C@@H]1CCN(c2nnn[nH]2)C[C@@H](NC(=O)N(C)c2ccc(Cl)nc2)C1` (single isomer, unassigned) [29B*] the value was 1 to 10 µM.
As to `C[C@H]1C[C@@H](NC(=O)N(C)c2c(F)cc(C3CC3)cc2F)[C@@H]2CC[C@H]1N2c1nnn[nH]1` (single isomer, unassigned) [60C*], the IC50 fell in the range of 50 to 100 µM.
In the case of `C[C@H]1CCN(c2nnn[nH]2)C[C@@H](NC(=O)N(C)c2ccc(OC(F)(F)F)c(F)c2F)C1` (single isomer, unassigned) [26D*] it was 10 to 50 µM; in that of `C[C@@H]1CCN(c2nnn[nH]2)C[C@@H](NC(=O)N(C)c2ccc(C(F)(F)F)cc2F)C1` (single isomer, unassigned) [13B*], 1 to 10 µM; in that of `C[C@@H]1CCN(c2nnn[nH]2)C[C@@H](NC(=O)N(C)c2cnc(C(F)(F)F)cn2)C1` (single isomer, unassigned) [32B*], 50 to 100 µM.
In the case of `C[C@H]1CCN(c2nnn[nH]2)C[C@@H](NC(=O)N(C)c2ccc(C3CC3)c(F)c2)C1` (single isomer, unassigned) [23D*] it was 1 to 10 µM.
In the case of `C[C@@H]1CCN(c2nnn[nH]2)C[C@@H](NC(=O)N(C)c2ncc(C(F)(F)F)cn2)C1` (single isomer, unassigned) [30B*] it was over 100 µM; in that of `C[C@H]1CCN(c2nnn[nH]2)C[C@H](NC(=O)Nc2ccc(Cl)cc2F)C1` (single isomer, unassigned) [27C*], 10 to 50 µM; in that of `C[C@H]1CCN(c2nnn[nH]2)C[C@H](NC(=O)N(C)c2ccc(OC(F)(F)F)cc2F)C1` (single isomer, unassigned) [24C*], 10 to 50 µM.
`C[C@H]1CCN(c2nnn[nH]2)C[C@H](NC(=O)N(C)c2cnc(C(F)(F)F)cn2)C1` (single isomer, unassigned) [32C*] yielded an IC50 of 50 to 100 µM.
`C[C@H]1C[C@H](NC(=O)N(C)c2c(F)cc(OC(F)F)cc2F)[C@@H]2CC[C@H]1N2c1nnn[nH]1` (single isomer, unassigned) [61D*] showed a half-inhibitory concentration (IC50) of 10 to 50 µM.
For `C[C@H]1C[C@@H](NC(=O)N(C)c2c(F)cc(OC(F)F)cc2F)[C@@H]2CC[C@H]1N2c1nnn[nH]1` (single isomer, unassigned) [61C*] the value was over 100 µM; for `C[C@H]1C[C@H](NC(=O)N(C)c2ccc(OC(F)(F)F)c(F)c2F)[C@@H]2CC[C@H]1N2c1nnn[nH]1` (single isomer, unassigned) [59D*], 10 to 50 µM; for `C[C@@H]1CCN(c2nnn[nH]2)C[C@@H](NC(=O)N(C)c2ccc(Cl)cc2)C1` (single isomer, unassigned) [4B*], 1 to 10 µM.
In the case of `C[C@H]1CCN(c2nnn[nH]2)C[C@@H](NC(=O)N(C)c2ccc(OC(F)F)cc2F)C1` (single isomer, unassigned) [17D*] it was over 100 µM; in that of `C[C@H]1CCN(c2nnn[nH]2)C[C@H](NC(=O)N(C)c2ccc(C(F)F)cc2F)C1` (single isomer, unassigned) [18C*], 10 to 50 µM; in that of `C[C@H]1C[C@H](NC(=O)N(C)c2ccc(OC(F)F)cc2F)[C@@H]2CC[C@H]1N2c1nnn[nH]1` (single isomer, unassigned) [57D*], 1 to 10 µM.
Regarding `C[C@@H]1CCN(c2nnn[nH]2)C[C@@H](NC(=O)N(C)c2ccc(OC(F)(F)F)c(F)c2F)C1` (single isomer, unassigned) [26B*], the IC50 is 1 to 10 µM.
As for `CCN(C(=O)N[C@H]1C[C@H](C)[C@H]2CC[C@@H]1N2c1nnn[nH]1)c1ccc(OC(F)F)cc1F` (single isomer, unassigned) [65D*], the IC50 was in the range of 10 to 50 µM.
As to `C[C@H]1CCN(c2nnn[nH]2)C[C@@H](NC(=O)N(C)c2ccc(OC(F)(F)F)cc2F)C1` (single isomer, unassigned) [24D*], the IC50 fell in the range of 1 to 10 µM.
In the case of `C[C@@H]1C[C@H](NC(=O)N(C)c2ccc(OC(F)F)c(OC(F)F)c2)[C@H]2CC[C@@H]1N2c1nnn[nH]1` (single isomer, unassigned) [64B*] it was over 100 µM; in that of `C[C@@H]1C[C@H](NC(=O)N(C)c2ccc(OC(F)(F)F)c(OC(F)F)c2)[C@H]2CC[C@@H]1N2c1nnn[nH]1` (single isomer, unassigned) [63B*], over 100 µM; in that of `C[C@H]1CCN(c2nnn[nH]2)C[C@@H](NC(=O)N(C)c2cnc(C(F)(F)F)cn2)C1` (single isomer, unassigned) [32D*], 50 to 100 µM.
For `C[C@@H]1C[C@H](NC(=O)N(C)c2ccc(OC(F)(F)F)c(F)c2)[C@H]2CC[C@@H]1N2c1nnn[nH]1` (single isomer, unassigned) [51B*] the value was 50 to 100 µM; for `C[C@@H]1CCN(c2nnn[nH]2)C[C@@H](NC(=O)N(C)c2ccc(OC(F)F)c(F)c2F)C1` (single isomer, unassigned) [40B*], 1 to 10 µM; for `C[C@H]1CCN(c2nnn[nH]2)C[C@H](NC(=O)N(C)c2ccc(OC(F)F)cc2)C1` (single isomer, unassigned) [11C*], 50 to 100 µM.
In the case of `C[C@H]1C[C@H](NC(=O)N(C)c2c(F)cc(OC(F)(F)F)cc2F)[C@@H]2CC[C@H]1N2c1nnn[nH]1` (single isomer, unassigned) [62D*] it was 50 to 100 µM; in that of `CCN(C(=O)N[C@@H]1C[C@@H](C)CCN(c2nnn[nH]2)C1)c1ccc(OC(F)(F)F)cc1` (single isomer, unassigned) [43C*], 10 to 50 µM.
Compound `C[C@H]1CCN(c2nnn[nH]2)C[C@@H](NC(=O)N(C)c2ccc(C3CC3)cc2)C1` (single isomer, unassigned) [8D*] yielded an IC50 of 1 to 10 µM.
For `C[C@@H]1CCN(c2nnn[nH]2)C[C@@H](NC(=O)N(C)c2ccc(OC(F)(F)F)cc2)C1` (single isomer, unassigned) [10B*] the value was 1 to 10 µM.
For `C[C@@H]1C[C@H](NC(=O)N(C)c2ccc(OC(F)F)c(F)c2F)[C@H]2CC[C@@H]1N2c1nnn[nH]1` (single isomer, unassigned) [58B*] the value was over 100 µM; for `C[C@H]1CCN(c2nnn[nH]2)C[C@H](NC(=O)N(C)c2ccc(C(F)(F)F)c(F)c2)C1` (single isomer, unassigned) [9C*], over 100 µM.
In the case of `C[C@H]1C[C@H](NC(=O)N(C)c2ccc(C(F)(F)F)c(F)c2F)[C@@H]2CC[C@H]1N2c1nnn[nH]1` (single isomer, unassigned) [47D*] it was 10 to 50 µM.
Compound `C[C@@H]1CCN(c2nnn[nH]2)C[C@@H](NC(=O)N(C)c2ccc(OC(F)F)cc2)C1` (single isomer, unassigned) [11B*] displayed an IC50 of 1 to 10 µM.
For `C[C@H]1C[C@@H](NC(=O)N(C)c2ccc(OC(F)(F)F)c(OC(F)F)c2)[C@@H]2CC[C@H]1N2c1nnn[nH]1` (single isomer, unassigned) [63C*] the value was 50 to 100 µM; for `C[C@@H]1CCN(c2nnn[nH]2)C[C@@H](NC(=O)N(C)c2ccc(OC(F)F)c(OC(F)F)c2)C1` (single isomer, unassigned) [16B*], 1 to 10 µM.
`C[C@H]1CCN(c2nnn[nH]2)C[C@@H](NC(=O)N(C)c2ncc(C(F)(F)F)cn2)C1` (single isomer, unassigned) [30D*] had a concentration for half-maximal inhibition (IC50) of over 100 µM.
In the case of `C[C@@H]1C[C@H](NC(=O)N(C)c2ccc(OC(F)F)cc2F)[C@H]2CC[C@@H]1N2c1nnn[nH]1` (single isomer, unassigned) [57B*] it was over 100 µM; in that of `CCN(C(=O)N[C@H]1C[C@@H](C)CCN(c2nnn[nH]2)C1)c1ccc(OC(F)(F)F)cc1` (single isomer, unassigned) [43D*], 1 to 10 µM; in that of `C[C@@H]1C[C@H](NC(=O)N(C)c2ccc(OC(F)(F)F)cc2F)[C@H]2CC[C@@H]1N2c1nnn[nH]1` (single isomer, unassigned) [56B*], over 100 µM.
In the case of `C[C@H]1C[C@@H](NC(=O)N(C)c2ccc(OC(F)F)c(F)c2F)[C@@H]2CC[C@H]1N2c1nnn[nH]1` (single isomer, unassigned) [58C*] it was 50 to 100 µM; in that of `C[C@H]1C[C@H](NC(=O)N(C)c2ccc(C(F)(F)F)c(F)c2)[C@@H]2CC[C@H]1N2c1nnn[nH]1` (single isomer, unassigned) [49D*], 50 to 100 µM.
Consider `C[C@H]1C[C@@H](NC(=O)N(C)c2ccc3cnoc3c2)CN(c2nnn[nH]2)C1` [Compound 38A, 1-(benzo[d]isoxazol-6-yl)-1-methyl-3-((3R,5S)-5-methyl-1-(1H-tetrazol-5-yl)piperidin-3-yl)urea], for which the IC50 was 10 to 50 µM.
In the case of `C[C@H]1CCN(c2nnn[nH]2)C[C@H](NC(=O)N(CC2CC2)c2ccc(OC(F)(F)F)cc2)C1` (single isomer, unassigned) [44C*] it was 10 to 50 µM; in that of `C[C@H]1CCN(c2nnn[nH]2)C[C@@H](NC(=O)N(C)c2ccc(C(F)F)cc2F)C1` (single isomer, unassigned) [18D*], 10 to 50 µM.
